Reference: US20250295096A1, “A RODENT MODEL OF FIBRODYSPLASIA OSSIFICANS PROGRESSIVA” (REGENERON PHARMACEUTICALS, INC., priority 2022, published 2025)

Test system: Acvr1^huecto[R206H]FIEx;[S330P]/+; Nanog-Cre mice ("FOP mice")
Assay: Anti-Activin A antibody treatment of FOP mice: survival and HO formation
Format: in vivo, mouse
Experimental: Wild type mice and Acvr1^huecto[R206H]FIEx;[S330P]/+; Nanog-Cre mice (“FOP mice”) were treated with an anti-Activin A monoclonal antibody (Garetosmab) or an isotype control antibody.
Wild type mice and Acvr1^huecto[R206H]FIEx;[S330P]/+; Nanog-Cre mice (“FOP mice”) were treated with an anti-Activin A monoclonal antibody (Garetosmab) and an isotype control antibody. […] The deaths in untreated FOP mice are believed to be possibly due to jaw HO.

Substance: Garetosmab: anti-Activin A monoclonal antibody
- HO formation (compared with isotype control antibody): inhibited HO formation
- survival (treatment initiated at 2 weeks of age, survival through 8 weeks of age): 100%
